Structures can show the parent of a compound that is named as a salt. Where two headings read alike, the source gives them in different places.
Key:
[1] = system: Aβ1-42; assay: Measurement of Aβ1-42 in culture medium of 7W WT APP751 CHO cells by ELISA; format: cell-based, Chinese hamster; settings: for Aβ1-42 (% of control): CHO cells that overexpress APP751, zero = below the detection limit of the assay; for activity at 5 µM: Cricetulus griseus, 5 μM test compound, CHO cells stably transfected with human APP751, culture medium, ELISA, control DMSO;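 as to Aβ1-42 (% of control): 5 µM test compound but RI-coded compounds at 10 µM for 24 hours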
[2] = system: Aβ1-40; assay: Measurement of Aβ1-40 in culture medium of 7W WT APP751 CHO cells by ELISA; format: cell-based, Chinese hamster; settings: for Aβ1-40 (% of control): CHO cells that overexpress APP751, zero = below the detection limit of the assay; for activity at 5 µM: Cricetulus griseus, 5 μM test compound, CHO cells stably transfected with human APP751, culture medium, ELISA, control DMSO;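 as to all read-outs here: 5 µM test compound but RI-coded compounds at 10 µM for 24 hours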
[3] = Table 1, 0 = no detectable amount, read-out: Aβ1-42 (% of control)
[4] = Table 1, 0 = no detectable amount

Row | Structure (SMILES) | Aβ1-42 (% of control) [1] | Aβ1-40 (% of control) [2] | activity at 5 µM [1, 3] | activity at 5 µM [2, 4] | other results
1 | COC(=O)C1=CN(Cc2ccc3c(c2)OCO3)C=C(C(=O)OC)C1c1ccc(OC)c(OC)c1 [ST038114, methyl 1-(2H-benzo[3,4-d]1,3-dioxolen-5-ylmethyl)-4-(3,4-dimethoxyphenyl)-5-(methoxycarbonyl)-1,4-dihydropyridine-3-carboxylate] | 95.92 % of control | 48 % of control | – | – | –
2 | CCOc1ccc(NC(=O)CSC2=C(C#N)C(c3cccs3)C(C(=O)Nc3ccccc3C)=C(C)N2)cc1 (stereo not drawn) [ST050838, 2-{3-cyano-6-methyl-5-[N-(2-methylphenyl)carbamoyl]-4-(2-thienyl)(2-1,4-dihydropyridylthio)}-N-(4-ethoxyphenyl)acetamide] | 56.66 % of control | 70.76 % of control | – | – | –
3 | CCOc1ccc(C2C(C(=O)OC(C)C)=C(C)NC3=C2C(=O)CCC3)cc1OC (stereo not drawn) [ST013323, methylethyl 4-(4-ethoxy-3-methoxyphenyl)-2-methyl-5-oxo-1,4,6,7,8-pentahydroquinoline-3-carboxylate] | – | – | 80.1% | 56.7% | –
4 | CC1=C(C(=O)Nc2ccccc2)C(c2cccs2)C(C#N)=C(SCC(=O)Nc2ccc(Br)cc2)N1 (stereo not drawn) [RI_71] | 25.1 % of control | 34.5 % of control | – | – | –
5 | CCCOc1ccc(C2C(C(=O)OC(C)CC)=C(C)NC3=C2C(=O)CC(c2ccc(Cl)cc2)C3)cc1 (stereo not drawn) [ST017093, methylpropyl 7-(4-chlorophenyl)-2-methyl-5-oxo-4-(4-propoxyphenyl)-1,4,6,7,8-pentahydroquinoline-3-carboxylate] | – | – | 95% | 46.8% | –
6 | CC1=C(C(=O)OCCOc2ccccc2)C(c2ccc(F)cc2)C2=C(CCCC2=O)N1 (stereo not drawn) [ST014891, 2-phenoxyethyl 4-(4-fluorophenyl)-2-methyl-5-oxo-1,4,6,7,8-pentahydroquinoline-3-carboxylate] | – | – | 39.3% | 51.8% | –
7 | CC1=C(C(=O)Nc2ccc(Cl)cc2)C(c2ccsc2)C(C#N)=C(SCC(=O)Nc2cccc(Cl)c2C)N1 (stereo not drawn) [RI_53] | 99.2 % of control | 56 % of control | – | – | –
8 | CCCCCOC(=O)C1=C(C)NC2=C(C(=O)CC(C)(C)C2)C1c1ccc(C)cc1 (stereo not drawn) [ST216602, pentyl 2,7,7-trimethyl-4-(4-methylphenyl)-5-oxo-1,4,6,7,8-pentahydroquinoline-3-carboxylate] | – | – | 5.01% | 2.65% | –
9 | CCCCOC(=O)C1=C(C)NC2=C(C(=O)CCC2)C1c1ccccc1OCCCC (stereo not drawn) [ST013330, butyl 4-(2-butoxyphenyl)-2-methyl-5-oxo-1,4,6,7,8-pentahydroquinoline-3-carboxylate] | – | – | 86.5% | 38% | –
10 | CCOc1ccc(/C=c2\sc3n(c2=O)C(N)=C(C#N)C(c2ccc(OCC)c(OC)c2)C=3C#N)cc1OC (stereo not drawn) [ST025022, 5-amino-7-(4-ethoxy-3-methoxyphenyl)-2-[(4-ethoxy-3-methoxyphenyl)methylene]-3-oxo-4,7-dihydro-1,3-thiazolidino[3,2-a]pyridine-6,8-dicarbonitrile] | 76.11 % of control | 61.31 % of control | – | – | –
11 | CCOC(=O)C1=C(C)NC2=C(C(=O)CC(c3ccc(OC)cc3)C2)C1c1ccccc1F (stereo not drawn) [ST015256, ethyl 4-(2-fluorophenyl)-7-(4-methoxyphenyl)-2-methyl-5-oxo-1,4,6,7,8-pentahydroquinoline-3-carboxylate] | – | – | 75.8% | 69.8% | –
12 | COC(=O)C1=C(C)NC2=C(C(=O)CC(c3ccccc3)C2)C1c1cc(OC)ccc1OC (stereo not drawn) [ST013117, methyl 4-(2,5-dimethoxyphenyl)-2-methyl-5-oxo-7-phenyl-1,4,6,7,8-pentahydroquinoline-3-carboxylate] | – | – | 46.1% | 22.4% | –
13 | COC(=O)C1=C(C)N(C)C(C)=C(C(=O)OC)C1c1ccccn1 [ST024568, methyl 5-(methoxycarbonyl)-1,2,6-trimethyl-4-(2-pyridyl)-1,4-dihydropyridine-3-carboxylate] | 70.13 % of control | 67.61 % of control | – | – | –
14 | N#CC1=C(N)NC(SCC(N)=O)=C(C#N)C1c1ccccc1Cl (stereo not drawn) [ST050859, 2-[6-amino-4-(2-chlorophenyl)-3,5-dicyano-2-1,4-dihydropyridylthio]acetamide] | 35.47 % of control | 75.54 % of control | – | – | –
15 | CCCCc1ccc(NC(=O)CSC2=C(C#N)C(c3ccsc3)C(C(=O)Nc3ccccc3)=C(C)N2)cc1 (stereo not drawn) [RI_65] | 38.1 % of control | 51.7 % of control | – | – | –
16 | CCc1cccc(NC(=O)CSC2=C(C#N)C(c3csc4ccccc34)C(C(=O)Nc3ccccc3)=C(C)N2)c1 (stereo not drawn) [RI_92] | 47.3 % of control | 60.7 % of control | – | – | –
17 | N#Cc1c(S)[nH]c(C(F)(F)F)cc1=O [ST014350, 4-oxo-2-sulfanyl-6-(trifluoromethyl)hydropyridine-3-carbonitrile, 4-methylmorpholine salt] | – | – | – | – | activity at 5 µM ([1]; Table 3, read-out: Aβ-42 (% of control)): 46.1%; activity at 5 µM ([2]; Table 3): 81.8%
18 | CC(=O)C1=C(C)NC(S)=C(C#N)C1c1ccccc1[N+](=O)[O-] (stereo not drawn) [ST011628, 5-acetyl-6-methyl-4-(2-nitrophenyl)-2-sulfanyl-1,4-dihydropyridine-3-carbonitrile] | 76.9 % of control | 74.07 % of control | – | – | –
19 | COc1ccc(C2C(C#N)=C(N)NC(C(C#N)C#N)=C2C#N)cc1OC (stereo not drawn) [ST025482, 6-amino-2-(dicyanomethyl)-4-(3,4-dimethoxyphenyl)-1,4-dihydropyridine-3,5-dicarbonitrile] | 45.1 % of control | 62.83 % of control | – | – | –
20 | CC1=C(C(=O)OC(C)(C)C)C(c2ccc(Cl)cc2)C(C#N)=C(SCC(=O)Nc2cc(C)ccc2C)N1 (stereo not drawn) [ST050428, tert-butyl 6-{[N-(2,5-dimethylphenyl)carbamoyl]methylthio}-4-(4-chlorophenyl)-5-cyano-2-methyl-1,4-dihydropyridine-3-carboxylate] | 65.47 % of control | 95.74 % of control | – | – | –
21 | CC1=C(C(=O)OCc2ccccc2)C(c2ccc([N+](=O)[O-])cc2)C2=C(CC(C)(C)CC2=O)N1 (stereo not drawn) [ST013214, phenylmethyl 2,7,7-trimethyl-4-(4-nitrophenyl)-5-oxo-1,4,6,7,8-pentahydroquinoline-3-carboxylate] | – | – | 4.36% | 0% | –
22 | CCn1c2ccccc2c2cc(C3C(C(=O)OCC4CCCO4)=C(C)NC4=C3C(=O)CCC4)ccc21 (stereo not drawn) [ST052207, oxolan-2-ylmethyl 4-(9-ethylcarbazol-3-yl)-2-methyl-5-oxo-1,4,6,7,8-pentahydroquinoline-3-carboxylate] | – | – | 59.6% | 52.3% | –
23 | CCOC(=O)C1=C(C)NC2=C(C(=O)CCC2)C1c1ccc(OCc2ccc(Cl)cc2)c(OC)c1 (stereo not drawn) [ST028598, ethyl 4-{4-[(4-chlorophenyl)methoxy]-3-methoxyphenyl}-2-methyl-5-oxo-1,4,6,7,8-pentahydroquinoline-3-carboxylate] | – | – | 71.6% | 27.4% | –
24 | CCN(CC)c1ccc(C2C(C(=O)OC(C)C)=C(C)NC3=C2C(=O)CC(c2ccccc2)C3)cc1 (stereo not drawn) [ST014875, methylethyl 4-[4-(diethylamino)phenyl]-2-methyl-5-oxo-7-phenyl-1,4,6,7,8-pentahydroquinoline-3-carboxylate] | – | – | 95.7% | 54.2% | –
25 | CCOc1cc(C2C(C(=O)OCCOC)=C(C)NC3=C2C(=O)CC(c2ccccc2)C3)cc(Br)c1O (stereo not drawn) [ST017060, 2-methoxyethyl4-(3-bromo-5-ethoxy-4-hydroxyphenyl)-2-methyl-5-oxo-7-phenyl-1,4,6,7,8-pentahydroquinoline-3-carboxylate] | – | – | 61.7% | 39% | –
26 | CCOC(=O)C1=C(N)n2c(s/c(=C/c3ccc(C(C)C)cc3)c2=O)=C(C(=O)OCC)C1c1ccc(C(C)C)cc1 (stereo not drawn) [ST011764, ethyl 5-amino-6-(ethoxycarbonyl)-7-[4-(methylethyl)phenyl]-2-{[4-(methylethyl)phenyl]methylene}-3-oxo-4,7-dihydro-1,3-thiazolidino[3,2-a]pyridine-8-carboxylate] | 70.37 % of control | 83.4 % of control | – | – | –
27 | COC(=O)C1=C(C)NC2=C(C(=O)CC(C)(C)C2)C1c1cccc(Cl)c1Cl (stereo not drawn) [ST013151, methyl 4-(2,3-dichlorophenyl)-2,7,7-trimethyl-5-oxo-1,4,6,7,8-pentahydroquinoline-3-carboxylate] | – | – | 61.6% | 52.1% | –
28 | CC1=C(C(=O)OC2CCCCC2)C(c2ccc(C)cc2)C2=C(CC(c3ccccc3)CC2=O)N1 (stereo not drawn) [ST013438, cyclohexyl 2-methyl-4-(4-methylphenyl)-5-oxo-7-phenyl-1,4,6,7,8-pentahydroquinoline-3-carboxylate] | – | – | 93.5% | 31.5% | –
29 | CC1=C(C(=O)OC2CCCC2)C(c2ccc(C)s2)C2=C(CCCC2=O)N1 (stereo not drawn) [ST052262, cyclopentyl 2-methyl-4-(5-methyl(2-thienyl))-5-oxo-1,4,6,7,8-pentahydroquinoline-3-carboxylate] | – | – | 19.7% | 13.2% | –
30 | CC1=C(C(=O)OC2CCCCC2)C(c2ccc(Cl)c(Cl)c2)C2=C(CC(c3ccccc3)CC2=O)N1 (stereo not drawn) [ST013350, cyclohexyl 4-(3,4-dichlorophenyl)-2-methyl-5-oxo-7-phenyl-1,4,6,7,8-pentahydroquinoline-3-carboxylate] | – | – | 95.6% | 25.1% | –

Source: patent US20100119599A1 (ARCHER PHARMACEUTICALS, INC., priority 2006, published 2010)
